From ChEMBL document CHEMBL5465560, “Selectivity Literature for EUbOPEN Chemogenomic Library” (2024)

Experiments:
[1] = target: MAP kinase-interacting serine/threonine-protein kinase 2 (Homo sapiens, UniProt Q9HBH9); assay: Selectivity interaction (Kinase panel (33PanQinase(R) Activity Assay)) EUB0000877a MKNK2
[2] = target: T1, Mitogen-activated protein kinase kinase kinase 6 (Homo sapiens) (UniProt O95382); assay: Selectivity interaction (ActivX KiNativ screen (kinase selectivity in THP-1 cell lysates)) EUB0000639a MAP3K6; assay type: subcellular; conditions: lysate, at 0.04 µM
T1 sequence (whole entry): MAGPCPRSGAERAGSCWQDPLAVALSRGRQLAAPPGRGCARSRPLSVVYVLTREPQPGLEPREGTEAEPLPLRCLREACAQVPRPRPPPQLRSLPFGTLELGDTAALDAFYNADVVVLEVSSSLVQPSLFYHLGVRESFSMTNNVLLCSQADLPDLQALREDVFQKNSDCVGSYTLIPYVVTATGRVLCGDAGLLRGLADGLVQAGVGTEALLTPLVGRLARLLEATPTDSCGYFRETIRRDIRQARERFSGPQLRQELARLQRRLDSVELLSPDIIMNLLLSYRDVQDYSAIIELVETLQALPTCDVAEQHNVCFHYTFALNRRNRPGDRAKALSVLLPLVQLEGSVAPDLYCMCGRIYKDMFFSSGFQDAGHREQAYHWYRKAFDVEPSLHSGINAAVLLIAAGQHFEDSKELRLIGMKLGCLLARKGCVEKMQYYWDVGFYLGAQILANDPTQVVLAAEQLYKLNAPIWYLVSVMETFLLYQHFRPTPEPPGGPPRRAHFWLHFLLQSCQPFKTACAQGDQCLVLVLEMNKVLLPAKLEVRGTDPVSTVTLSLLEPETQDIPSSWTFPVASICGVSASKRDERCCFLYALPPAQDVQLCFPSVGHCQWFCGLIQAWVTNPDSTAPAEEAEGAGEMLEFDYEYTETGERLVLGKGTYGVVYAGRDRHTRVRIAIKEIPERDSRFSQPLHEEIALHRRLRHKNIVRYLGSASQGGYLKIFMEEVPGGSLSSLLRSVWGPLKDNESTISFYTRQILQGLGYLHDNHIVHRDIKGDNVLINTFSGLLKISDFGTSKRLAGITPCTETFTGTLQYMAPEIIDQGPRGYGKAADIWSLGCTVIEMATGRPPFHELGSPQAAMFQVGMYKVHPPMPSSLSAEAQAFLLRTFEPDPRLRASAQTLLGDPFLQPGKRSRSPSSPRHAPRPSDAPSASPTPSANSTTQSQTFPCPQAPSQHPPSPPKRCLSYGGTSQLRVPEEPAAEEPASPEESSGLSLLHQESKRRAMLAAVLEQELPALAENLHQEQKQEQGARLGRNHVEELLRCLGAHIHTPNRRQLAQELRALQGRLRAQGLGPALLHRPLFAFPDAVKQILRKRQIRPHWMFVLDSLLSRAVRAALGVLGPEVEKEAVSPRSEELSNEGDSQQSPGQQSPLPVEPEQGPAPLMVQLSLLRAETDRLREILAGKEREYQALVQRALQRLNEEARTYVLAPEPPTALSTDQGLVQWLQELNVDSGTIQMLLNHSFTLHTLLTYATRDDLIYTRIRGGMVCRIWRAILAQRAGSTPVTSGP

[3] = target: Mitogen-activated protein kinase 9 (Homo sapiens, UniProt P45984); assay: Selectivity interaction (ActivX KiNativ screen (kinase selectivity in THP-1 cell lysates)) EUB0000639a MAPK9; assay type: subcellular; conditions: lysate, at 0.2 µM
Sequence of Mitogen-activated protein kinase 9 (P45984 whole entry, looked up): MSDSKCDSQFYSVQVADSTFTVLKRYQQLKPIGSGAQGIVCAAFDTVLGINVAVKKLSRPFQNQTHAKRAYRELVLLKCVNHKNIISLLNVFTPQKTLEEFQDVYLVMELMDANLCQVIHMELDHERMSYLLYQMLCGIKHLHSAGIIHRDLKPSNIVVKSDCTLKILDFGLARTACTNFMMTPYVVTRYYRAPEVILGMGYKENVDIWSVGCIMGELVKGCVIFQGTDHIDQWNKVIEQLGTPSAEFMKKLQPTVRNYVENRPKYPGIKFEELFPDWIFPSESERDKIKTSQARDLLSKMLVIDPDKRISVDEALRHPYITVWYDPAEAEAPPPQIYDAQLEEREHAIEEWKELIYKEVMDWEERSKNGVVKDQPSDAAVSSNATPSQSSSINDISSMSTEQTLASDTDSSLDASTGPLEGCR

[4] = target: Cyclin-dependent kinase 5 (Homo sapiens, UniProt Q00535); assay: Selectivity interaction (KinomeScan (DiscoverX)) EUB0000045b CDK5
Sequence of Cyclin-dependent kinase 5 (Q00535 whole entry, looked up): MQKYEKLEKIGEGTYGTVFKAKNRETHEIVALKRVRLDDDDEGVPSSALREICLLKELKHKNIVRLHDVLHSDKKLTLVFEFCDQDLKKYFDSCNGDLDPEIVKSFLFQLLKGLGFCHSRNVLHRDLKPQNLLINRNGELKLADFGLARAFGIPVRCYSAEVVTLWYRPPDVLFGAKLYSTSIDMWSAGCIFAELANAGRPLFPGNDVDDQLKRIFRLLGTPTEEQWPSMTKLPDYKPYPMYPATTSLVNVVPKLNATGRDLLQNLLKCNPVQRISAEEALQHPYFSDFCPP

[5] = target: T2, MAP/microtubule affinity-regulating kinase 4 (Homo sapiens) (UniProt Q96L34); assay: Selectivity interaction (KinomeScan (DiscoverX)) EUB0001619a MARK4; conditions: at 1 µM
T2 sequence (whole entry): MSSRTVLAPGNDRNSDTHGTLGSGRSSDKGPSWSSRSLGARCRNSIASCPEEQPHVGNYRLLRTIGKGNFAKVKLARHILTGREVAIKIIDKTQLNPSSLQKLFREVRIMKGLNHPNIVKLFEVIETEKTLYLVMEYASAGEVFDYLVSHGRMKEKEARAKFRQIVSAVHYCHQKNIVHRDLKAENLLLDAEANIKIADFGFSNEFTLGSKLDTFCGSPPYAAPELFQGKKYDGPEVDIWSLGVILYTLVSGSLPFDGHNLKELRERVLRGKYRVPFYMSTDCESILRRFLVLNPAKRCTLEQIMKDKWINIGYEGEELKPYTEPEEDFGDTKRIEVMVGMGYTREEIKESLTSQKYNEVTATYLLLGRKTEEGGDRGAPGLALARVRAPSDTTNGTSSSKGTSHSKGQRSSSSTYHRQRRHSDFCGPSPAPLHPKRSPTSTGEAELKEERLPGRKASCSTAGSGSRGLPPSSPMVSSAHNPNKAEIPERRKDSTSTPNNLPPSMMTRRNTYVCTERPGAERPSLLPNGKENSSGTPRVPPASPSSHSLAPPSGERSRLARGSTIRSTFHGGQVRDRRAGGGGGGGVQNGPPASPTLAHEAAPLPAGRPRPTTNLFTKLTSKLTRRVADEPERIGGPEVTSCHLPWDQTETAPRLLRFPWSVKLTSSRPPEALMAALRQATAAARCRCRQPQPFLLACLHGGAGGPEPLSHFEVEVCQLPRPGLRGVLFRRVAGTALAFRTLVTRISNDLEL

[6] = target: Tyrosine-protein kinase Fyn (Homo sapiens) (UniProt P06241); assay: Selectivity interaction (KinomeScan (DiscoverX)) EUB0001619a FYN; conditions: at 1 µM
Sequence of Tyrosine-protein kinase Fyn (Homo sapiens) (P06241 2-537 limits assumed): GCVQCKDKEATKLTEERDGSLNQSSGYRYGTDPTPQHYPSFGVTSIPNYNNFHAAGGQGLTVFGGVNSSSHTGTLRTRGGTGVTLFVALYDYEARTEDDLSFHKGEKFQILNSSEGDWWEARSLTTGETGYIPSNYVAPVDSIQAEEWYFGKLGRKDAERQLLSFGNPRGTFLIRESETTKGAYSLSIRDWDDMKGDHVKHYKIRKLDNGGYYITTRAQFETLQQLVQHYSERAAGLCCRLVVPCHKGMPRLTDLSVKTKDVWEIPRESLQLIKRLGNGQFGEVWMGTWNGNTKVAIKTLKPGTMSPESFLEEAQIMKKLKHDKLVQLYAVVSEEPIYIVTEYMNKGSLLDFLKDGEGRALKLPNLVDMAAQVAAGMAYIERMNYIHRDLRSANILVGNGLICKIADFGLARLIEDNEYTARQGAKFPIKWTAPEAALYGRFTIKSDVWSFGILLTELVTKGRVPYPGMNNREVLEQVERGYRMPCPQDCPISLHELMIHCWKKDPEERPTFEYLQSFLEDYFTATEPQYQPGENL

Sequence of MAP kinase-interacting serine/threonine-protein kinase 2 (Q9HBH9 whole entry): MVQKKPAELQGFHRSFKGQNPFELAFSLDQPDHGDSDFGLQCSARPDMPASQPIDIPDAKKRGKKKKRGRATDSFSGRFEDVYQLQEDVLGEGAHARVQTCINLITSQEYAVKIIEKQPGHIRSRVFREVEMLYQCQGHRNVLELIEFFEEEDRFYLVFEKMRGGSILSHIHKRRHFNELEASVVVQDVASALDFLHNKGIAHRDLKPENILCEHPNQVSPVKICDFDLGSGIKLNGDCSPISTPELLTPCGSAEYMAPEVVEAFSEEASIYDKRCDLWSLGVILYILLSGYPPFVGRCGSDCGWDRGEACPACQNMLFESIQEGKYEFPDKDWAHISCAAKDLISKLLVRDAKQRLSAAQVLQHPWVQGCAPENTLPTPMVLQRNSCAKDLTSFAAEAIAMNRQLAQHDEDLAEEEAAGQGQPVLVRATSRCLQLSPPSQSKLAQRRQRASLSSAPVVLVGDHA

`CCC(=O)N1CC[C@H](Nc2ncnc3c2CN(c2cnc(OC)c(C(F)(F)F)c2)CC3)C1` [LENIOLISIB] was tested, and the IC50 [1] was > 10 µM.

For `CC[C@@H]1[C@H](F)C(=O)N[C@@H]1COc1nccc2cc(C(N)=O)c(OC)cc12` [ZIMLOVISERTIB], the % of inhibition [2] was 3.6% and the % of inhibition [3] was -0.3%.

Work on `C=CC(=O)Nc1cc(-n2c(=O)ccc3cnc4ccc(-c5ccc(NS(C)(=O)=O)cc5)cc4c32)ccc1C` yielded a % of control ([4]; at 1 µM) of 88% and a % of control ([4]; at 10 µM) of 100%.

In the case of `N#Cc1cccc(-c2c[nH]c3ncnc(N4CCOCC4)c23)c1`, the % of control [5] is reported as 82% and the % of control [6] is reported as 86%.
